Details: human, in vivo

CCNCC#CCOC(=O)C(O)(c1ccccc1)C1CCCCC1 (stereo not shown) [desethyloxybutynin]
t½ of DESOXY compared to OXY: shorter t½ life compared to OXY

Reference: patent US20020142033A1, “Method for treating incontinence” (priority 1998, published 2002)
